Measured values as given in ChEMBL document CHEMBL1150601, “Lyngbouilloside, a novel glycosidic macrolide from the marine cyanobacterium Lyngbya bouillonii” (J Nat Prod, 2002).
pIC50: −log10 of the molar value.

Assay: Cytotoxicity against mouse Neuro2a cells
Assay type: functional, cell-based
Conditions: N2a

## CC/C=C/C=C/CC[C@]1(C)C[C@H](O)[C@H](C)CC[C@H]2C[C@@H](O[C@@H]3O[C@@H](C)[C@H](OC)[C@@H](O)[C@H]3OC)C[C@@](O)(CC(=O)O1)O2 [LYNGBOUILLOSIDE]
  pIC50: 4.77
